# Laboratory results as given in patent publication US10322143B2, “Inhibitors of ADAMTS4 or ADAMTS5 for use in preventing or treating cardiac remodeling and chronic heart failure” (Universitetet i Oslo, priority 2013, dated 2019).
# Columns and labels:
# versican [1] = assay: Versican DPEEAE fragments and full-length versican in myocardial ECM fractions (immunoblotting), aortic banding rats; format: in vivo, rat
# Protocol: Three days after AB, rats were stratified by the gradient over the stenosis to ensure similar degree of cardiac stress. Two and two stratified rats were randomized to either 6 mg/kg of the sulfated polysaccharide sodium pentosan polysulfate (PPS) (Interfarm AS, Norway) or vehicle (0.9% NaCl) injected subcutaneously every third day. […] Six weeks after AB or sham operation, the rats were examined by echocardiography and postmortem analysis, performed by experienced investigators (IS, JMA) blinded to treatment group.
# Proteins from rat myocardium were extracted as previously described (Didangelos et al. J Biol Chem 2012. 287(23):19341-5). Briefly, proteins were separated into three fractions; NaCl-soluble extracellular proteins (NaCl-ECM) and guanidine-soluble extracellular proteins (G-ECM), containing the fluid and matrix compartment of ECM respectively, in addition to cellular and cell-linked proteins dissolvable in SDS (SDS-samples) (FIG. 6D). NaCl-ECM and G-ECM were deglycosylated to remove GAG chains using 4 mU/NaCl-sample and 12 mU/G-sample of Chondroitinase ABC (from Proteus vulgaris, G3667, Sigma-Aldrich, MO) and 5 mU/NaCl-sample and 15 mU/G-sample of keratanase (endo-β-galactosidase from Bacteroides fragilis, G6920, Sigma-Aldrich), as previously described (Didangelos A et al. supra).
# Protein concentrations were measured using the Micro BCA Protein Assay Kit (Pierce/Thermo Scientific, IL). Sample buffer was mixed with 5-25 μg (G-samples) or 30 μg (NaCl and SDS samples) of the protein lysate, denatured at 96° C. for 10 min, and run on 1.5 mm 4-12% Bis-Tris gradient gels (Nupage, Invitrogen, CA), with MOPS SDS running buffer until the 37 kDa protein marker reached the bottom of the gel. All protein extracts were loaded blinded to group.
# SDS-PAGE and immunoblotting was performed as described in the Criterion BioRad protocol, using polyvinylidene fluoride (PVDF) membranes (GE Healthcare Life Sciences, Uppsala, Sweden). Blots were developed using the ECL Plus Western Blotting Detection System (GE Healthcare) and visualized in the Las-4000 mini from Fujifilm (Japan). Before reprobing, stripping was performed using the Restore Western Blot Stripping Buffer (21059, Thermo Scientific, IL). […]
# Membranes were blocked in 5% non-fat dry-milk (170-6404, BioRad) overnight. […] Primary antibodies used were against ADAMTS4 (PA1-1750, Thermo Pierce Scientific, IL), versican full length (sc-25831, Santa Cruz Biotechnology, CA) and versican fragments displaying the neo-epitope DPEEAE (ab19345, Abcam, Cambrigde, UK) resulting from ADAMTS cleavage by ADAMTS1/4 (Sandy J D et al. J Biol Chem 2001. 276(16):13372-8; Didangelos A et al. supra), and quantified by ImageJ.
# versican [2] = assay: Versican DPEEAE fragments (immunoblotting) in MI rats; format: in vivo, rat; settings: PPS-treatment
# Protocol: At day 0 to 3 (median 2) after surgery, infarct size was quantified by echocardiography using the Vevo2100 system (Visualsonics Inc, Canada) and magnetic resonance imaging (MRi) using a 9.4 T/210 mm/ASR horizontal bore magnet (Agilent Technologies, Inc., USA). Initially, echocardiography was performed to select moderate to large infarcts ranging approximately 40 to 50%. Thereafter, infarct sizes were exactly measured by late-enhancement gadolinium MRi analyses (Bohl S., et al. American Journal of Physiology, 2009; 296 (4): H1200-H1208) and stratified into small infarcts (stratum 1: <43%, stratum 2: 43-48%), and large infarcts (stratum 3: 48-53%, stratum 4: >53%). The rats in each MI stratum and sham group were randomized to receive intervention or control treatment. The intervention group was treated with 6 mg/kg of sodium PPS (Interfarm AS, Norway), while the control group received vehicle (0.9% NaCl), both injected subcutaneously every third day starting from post-operative day 8-10.
# Fractional protein lysates from myocardium of rats having undergone MI treated with PPS or vehicle were extracted as previously described in Example 1 and Didangelos et al. (Journal of Biological Chemistry 2012 Jun. 1; 287(23):19341-5). Protein concentrations were measured by western blotting as previously described in Example 1. […]
# [3] = PPS-treated AB-rats, normalized to control, median (interquartile range)
substance,measurement,setting,value
pentosan polysulfate [PPS],change of p150 versican in NaCl-ECM compared to vehicle-treated AB-rats,"versican [1]; PPS-treated AB-rats vs vehicle-treated AB-rats, p=0.05",halved
same,level of full-length versican (p400) in G-ECM,versican [1]; [3],1.17 (0.77-6.85)
same,level of p150 versican DPEEAE fragment in NaCl-ECM,versican [1]; [3],1.08 (0.69-1.63)
same,p70 versican fragment level in G-ECM,"versican [1]; PPS-treated sham, normalized to control, median (interquartile range)",0.34 (0.28-0.61)
same,versican DPEEAE fragments,versican [2],decreased
